Results taken from US10668057B2, “Compositions and methods for inducing conformational changes in cereblon and other E3 ubiquitin ligases” (Celgene Corporation, priority 2014, dated 2020).
Blank lines part the entries; values can stand above or below the compound they belong to.

Legend:
[1] = tested on: TMD8 (ABC) or Karpas 422 (GCB) cells; experiment: 3H-thymidine incorporation proliferation assay, co-treatment with lenalidomide; type: cell-based; details: for anti-proliferative effects on co-treatment with lenalidomide: co-treatment with 10 μM lenalidomide
MDA-MB-231 = experiment: Growth inhibition and pro-apoptotic activity in breast cancer cells treated with CRBN siRNA; type: cell-based; details: CRBN siRNA vs negative control
Experimental: Breast cancer cells (MDA-MB-231) were treated with CRBN siRNA or a negative control. CC-885 was added at a concentration between 0 to 100 μM, and CRBN levels were assessed at 48 hours post treatment.

[2] = tested on: DF15 (sensitive), DF15R (resistant; CRBNnull) cells; experiment: Cell proliferation assay of DF15, DF15R and DF15R-derived cells with CC-885; type: cell-based
H929 = experiment: Apoptosis in multiple myeloma cell line H929; type: cell-based; details: 0.01 nM to 1000 nM, assessed at 24 hrs
Experimental: The multiple myeloma cell line, H929, was cultured and treated with CC-885 or other CMA analogs at various concentrations from 0.01 nM to 1000 nM. Apoptosis was assessed at 24 hrs. later.

CRBN [3] = molecular target: T1, CRBN (Homo sapiens, UniProt Q96SW2); experiment: Thalidomide analog affinity bead competition, U266 cell extracts; type: binding; design: extracts prepared from U266 multiple myeloma cells; endogenous in cells; host or cells: U266 multiple myeloma cells (cell extract); details: U266 MM cell extracts, competition with thalidomide analog affinity beads
Experimental: Immunoblot analysis of extracts prepared from U266 multiple myeloma cells and pre-incubated with vehicle DMSO (D), Pomalidomide (Pom) or CC-885 at the indicated concentrations, and bound to thalidomide analog affinity beads, washed and eluted with SDS buffer as previously described (Ito et al, 2010; Lopez-Girona et al, 2012). Samples were subjected to SDS-PAGE and immunoblot analysis using anti-CRBN 65-76 (1:10,000 dilution; Red signal) and anti-DDB1 (Cell Signaling) (1:2,000 dilution; Green signal). A LI-COR Odissey system was used to quantify CRBN band density and relative amounts of CRBN were determined by averaging at least three DMSO controls and expressing CRBN in each competition sample as percent inhibition of CRBN protein relative to the averaged controls as 100% binding. […] Cell proliferation assay of DF15 (sensitive), DF15R (resistant; CRBNnull) cells treated with a dose response of CC-885. Assays were done in triplicate and error bars represent s.d. Data for each cell line was normalized to treatment with vehicle (DMSO). […] Cell proliferation assay of DF15 (sensitive), DF15R (resistant; CRBNnull), DF15R-hCRBNWT (human CRBN), DF15R-RFP cells treated with a dose response of CC-885. […] Assays were done in triplicate and error bars represent s.d. Data for each cell line was normalized to treatment with vehicle (DMSO). […]

[4] = tested on: panel of tumor cell lines; experiment: Potency across a panel of tumor cell lines; type: cell-based
Experimental: The potency of CC-885 was assessed across a panel of tumor cell lines, including B-lymphoma, breast, CNS, colon, kidney, leukemia, lung, melanoma, multiple myeloma, ovary and prostate.

CRBN^E377V = molecular target: T2, CRBN^E377V (Homo sapiens, UniProt Q96SW2, E377V); experiment: Thalidomide analog-coupled affinity bead assay, DF15R CRBN^E377V cell extracts; type: binding; details: preincubation of cell extracts with free compound, comparable to CRBN^WT
T2 construct: Cell lines re-expressing RFP or full length CRBN wild type or E377V mutant; expressed in transfected cells; host or cells: DF15R (CRBN-deficient myeloma line), lentiviral system; cell extract
Experimental: (§1) DF15, DF15R or DF15R derived cell line extracts were prepared in NP 40 lysis buffer (0.5% NP40, 50 mM Tris HCl (pH 8.0), 150 mM NaCl, 0.5 mM DTT, 0.25 mM PMSF, 1× protease inhibitor mix (Roche, Indianapolis, Ind.) at approximately 2×10^8 cells per ml […]. Cell debris and nucleic acids were cleared by centrifugation (14,000 rpm 30 min 4° C.). In competition experiments 0.5 ml (3-5 mg protein) aliquots of the resulting extracts were preincubated (15 min room temp.) with 5 μl DMSO (control) or 5 μl compound at varying concentrations in DMSO. Thalidomide analog-coupled beads (0.3-0.5 mg) were added to protein extracts and samples rotated (2 hours, 4° C.). Beads were washed three times with 0.5 ml NP40 buffer, and then bound proteins were eluted with SDS-PAGE sample buffer.
To probe the function of the residues proximal to the bound IMiD® drug, we performed mutagenesis of residue E377 to valine in the human CRBN sequence and re-expressed the protein using a lentiviral system in DF15R cells. Cell extracts from this line were used to assay the ability of CRBN^E377V to bind IMiD® compound.

DF15R cells = experiment: Cell proliferation assay of DF15R cells re-expressing CRBN wild type or mutants; type: cell-based
H929 and U266 = experiment: Cell viability in CRBN inducible shRNA knockdown myeloma cells; type: cell-based; details: CRBN inducible knockdown vs shControl, 5 day treatment
Description: FIG. 25A: An inducible shRNA construct targeting CRBN or a control construct was transduced into the multiple myeloma cell lines H929 and U266. Inducible shRNA expression (marked by turbo-RFP) was monitored by flow cytometry over a period of 1 to 9 days as indicated in the histograms (Top row). […] FIG. 25B: CRBN protein expression was quantified by Western blotting. […] Data are shown as mean of three independent experiments±s.d.
Inducible shRNA constructs targeting CRBN or a control construct (Open Biosystems) were transduced using spinoculation methodology into the multiple myeloma cell lines H929 and U266. Stably transduced cells were selected with puromycin. Inducible shRNA expression (marked by RFP) was monitored by fluorescence microscopy and flow cytometry using 1 μg/mL doxycycline. CRBN protein expression was quantified by Western blotting. Cell proliferation and viability were assessed by 7AAD/flow cytometry assays. 6.9.2.5 Immunoblot and Immunohistochemistry

CRBN^WT = molecular target: T3, CRBN^WT (Homo sapiens, UniProt Q96SW2); experiment: Thalidomide analog-coupled affinity bead assay, DF15R CRBN^WT cell extracts; type: binding; details: preincubation of cell extracts with free compound
T3 construct: re-express full length wild type (CRBN^WT), W386A (CRBN^W386A) or W400A (CRBN^W400A) mutant versions of CRBN; FLAG; expressed in transfected cells; host or cells: DF15R (CRBN-deficient myeloma line), lentiviral transduction, puromycin selection; cell extract
Experimental: as §1

IL-2 = IL-2 induction in mouse splenocytes; type: cell-based
Description: FIGS. 26A-26B show IL2 costimulation by pomalidomide. FIG. 26A: Co-stimulation of IL2 release by pomalidomide in human PBMCs treated with anti-CD3. Data are shown as mean±s.d. FIG. 26B: Costimulation of IL2 release by anti-CD28 (squares) or pomalidomide (circles) in mouse PBMC treated with anti-CD3. Data are shown as mean±s.d.

CRBN [5] = molecular target: T1, CRBN; details: in vitro; cited from earlier work
[6] = mice and rats; cited from earlier work

binding to CRBN protein (CRBN [3]): binds
Compound: Cc1ccc(NC(=O)NCc2ccc3c(c2)CN(C2CCC(=O)NC2=O)C3=O)cc1Cl (stereo not shown) [CC-885, 1-(3-chloro-4-methylphenyl)-3-((2-(2,6-dioxopiperidin-3-yl)-1-oxoisoindolin-5-yl)methyl)urea]
growth inhibition, dependence on CRBN (MDA-MB-231): CRBN is required | pro-apoptotic activity, dependence on CRBN (MDA-MB-231): CRBN is required | anti-proliferative effects on co-treatment with lenalidomide [1]: blocks anti-proliferative effects | anti-proliferative activity after re-expression of human CRBN ([2]; DF15R-hCRBNWT): recues CC-885 anti-proliferative activity | anti-proliferative activity, dependence on CRBN ([2]; DF15 vs DF15R (CRBNnull)): CRBN is required | early apoptosis (H929): induced early apoptosis | potency across tumor cell line panel ([4]; B-lymphoma, breast, CNS, colon, kidney, leukemia, lung, melanoma, multiple myeloma, ovary and prostate): potent | Therapeutic Index ([4]; toxic effects at low doses): low

competition for CRBN^E377V binding to thalidomide analog-beads (CRBN^E377V): competed | competition for CRBN binding to thalidomide analog-beads (CRBN^WT): competed for binding to the beads
Compound: Nc1cccc2c1C(=O)N(C1CCC(=O)NC1=O)C2=O (stereo not shown) [pomalidomide]
sensitivity to antiproliferative effect (DF15R cells; DF15R re-expressing CRBN^E377V): unable to rescue sensitivity | antiproliferative effect (DF15R cells; DF15R re-expressing CRBN^WT): regained antiproliferative effect | anti-proliferative effects (H929 and U266): reduced anti-proliferative effects | IL-2 inducing effects (IL-2): resistant

competition for CRBN^E377V binding to thalidomide analog-beads (CRBN^E377V): competed | competition for CRBN binding to thalidomide analog-beads (CRBN^WT): competed for binding to the beads
Compound: O=C1CCC(N2C(=O)c3ccccc3C2=O)C(=O)N1 (racemic) [thalidomide]
auto-ubiquitination of CRBN (CRBN [5]): able to inhibit | teratogenic effects [6]: insensitive

Second part, the compound before the results:

Compound: Cc1nc2cccc(N)c2c(=O)n1C1CCC(=O)NC1=O (stereo not shown) [Compound A, 3-(5-amino-2-methyl-4-oxo-4H-quinazolin-3-yl)-piperidine-2,6-dione]
anti-proliferative effects on co-treatment with lenalidomide [1]: blocks anti-proliferative effects

Compound: Nc1cccc2c1CN(C1CCC(=O)NC1=O)C2=O (stereo not shown) [lenalidomide, 3-(4-amino-1-oxo-1,3-dihydro-isoindol-2-yl)-piperidine-2,6-dione]
teratogenic effects [6]: insensitive | competition for CRBN ([1]; against Compound A and CC-885): competes
